Laboratory results reported in ChEMBL document CHEMBL3421587, “Discovery of novel small-molecule antagonists for GluK2” (Bioorg Med Chem Lett, 2015).
Activity calls are given as the source filed them. The calls are words filed in the database; no cut-off is given here.

What was measured:
Format in all cases: cell-based
[1] = target: Glutamate receptor ionotropic, kainate 2 (Homo sapiens) (UniProt Q13002); assay: Antagonist activity at GluK2 (unknown origin) transfected in HEK293 cells assessed as inhibition of L-glutamate-induced peak current responses at 1 mM compound added in background solution by electrophysiological analysis relative to control
Glutamate receptor ionotropic, kainate 2 (Homo sapiens), sequence (Q13002 whole entry): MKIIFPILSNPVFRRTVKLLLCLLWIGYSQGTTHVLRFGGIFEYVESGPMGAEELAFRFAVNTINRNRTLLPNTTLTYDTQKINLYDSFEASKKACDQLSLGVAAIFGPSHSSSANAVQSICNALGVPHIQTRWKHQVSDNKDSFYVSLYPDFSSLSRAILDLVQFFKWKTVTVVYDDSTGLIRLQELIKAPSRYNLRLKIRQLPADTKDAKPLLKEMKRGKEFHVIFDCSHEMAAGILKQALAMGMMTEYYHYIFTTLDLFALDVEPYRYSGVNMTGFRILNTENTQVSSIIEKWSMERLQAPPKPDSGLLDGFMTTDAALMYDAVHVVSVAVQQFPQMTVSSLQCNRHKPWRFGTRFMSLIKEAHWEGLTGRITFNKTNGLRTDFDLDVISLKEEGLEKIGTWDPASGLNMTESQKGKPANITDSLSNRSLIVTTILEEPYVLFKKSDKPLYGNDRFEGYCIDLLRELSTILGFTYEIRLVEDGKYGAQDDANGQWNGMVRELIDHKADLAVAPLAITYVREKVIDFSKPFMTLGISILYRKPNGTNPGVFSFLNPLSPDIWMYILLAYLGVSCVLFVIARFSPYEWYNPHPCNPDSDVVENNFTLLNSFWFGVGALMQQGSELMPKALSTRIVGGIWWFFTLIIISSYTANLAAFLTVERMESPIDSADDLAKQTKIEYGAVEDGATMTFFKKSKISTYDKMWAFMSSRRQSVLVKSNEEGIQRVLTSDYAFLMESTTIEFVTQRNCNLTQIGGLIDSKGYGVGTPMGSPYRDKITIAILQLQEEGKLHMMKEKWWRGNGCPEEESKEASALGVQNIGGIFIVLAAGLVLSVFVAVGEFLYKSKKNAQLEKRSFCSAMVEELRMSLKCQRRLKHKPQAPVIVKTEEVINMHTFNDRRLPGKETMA

[2] = target: Glutamate receptor ionotropic, kainate 2 (Homo sapiens) (UniProt Q13002); assay: Agonist activity at GluK2 (unknown origin) transfected in HEK293 cells assessed as current responses at 1 mM by electrophysiological analysis
[3] = target: Glutamate receptor ionotropic, kainate 2 (Homo sapiens) (UniProt Q13002); assay: Antagonist activity at GluK2 (unknown origin) transfected in HEK293 cells assessed as inhibition of L-glutamate-induced peak current response at 1 mM compound added in background and L-glutamate solution by electrophysiological analysis relative to control

| inhibition [1] | Activity [2] | inhibition [3] | Structure (SMILES) |
| --- | --- | --- | --- |
| 46% | inactive | 53% | CC[C@@H](CC(=O)O)[C@H](N)C(=O)O |
| 95% | – | – | CCC[C@@H](CC(=O)O)[C@H](N)C(=O)O |
| 38% | inactive | – | C[C@@H](CC(=O)O)[C@H](N)C(=O)O |
| inactive | – | – | CC(C)C[C@@H](CC(=O)O)[C@H](N)C(=O)O |
| inactive | – | – | N[C@H](C(=O)O)[C@H](CC(=O)O)c1ccccc1 |
